Laboratory results reported in a melting point compilation (Tetko et al.; mined from patent text by program, amines drawn as free bases though some values may be those of a salt).

melting point	SMILES
48 to 49 °C	COC(=O)c1cccc2cc(C)sc12
182 to 184 °C	CCC=Cc1ncc(/C=C(\Cc2cccs2)c2nnn[nH]2)n1Cc1ccccc1Cl
164 to 166 °C	O=C(O)c1c(Oc2ccc(F)cc2)cccc1Oc1ccc2c(c1)OCO2
208 to 211 °C	COc1cc(C(=O)NS(=O)(=O)c2ccccc2Cl)ccc1Cc1cn(C)c2ccc(CCNC(=O)N(C)C)cc12
72 to 74 °C	CCc1cc(N)c(I)c(CC)n1
223 to 225 °C	O=[N+]([O-])c1cccc(C2=NCc3n[nH]nc3-c3ccccc32)c1
159 to 161 °C	Cc1ccc(CNC(=O)c2ccc3n2Cc2ccccc2N(C(=O)c2ccc(-c4ccccc4C)c(C)c2)C3)c(C)c1
218 to 220 °C	CC(=O)N1CCc2nc(N)nc(-c3ccc(Cl)cc3)c2C1
134 to 136 °C	CC(=O)c1cc(C=O)c(O)cc1O
191 °C	O=C(C=Cc1cccc(S(=O)(=O)NCc2cccnc2)c1)NO
86 to 88 °C	CC1(C)CC(N)c2cc(OCc3ccccc3)ccc2O1 (stereo not given)
187 °C	Cc1cccc(C(=O)O)c1NC(=O)/C=C1\SCC(=O)N1C
49 to 52 °C	CC(=S)OC(c1ccccc1)C1(C)OCCO1 (stereo not given)
65 to 66 °C	CN(Cc1ccc([N+](=O)[O-])cc1)C(CO)CO
138 to 139 °C	CC#CN(C(C)=O)c1nc2ccccc2s1
101 to 102 °C	CCCc1ccc(OCCCc2cc3c(cc2O)CCO3)cc1
306 to 308 °C	COC1=NC(=O)c2c1cc1ccc3c(c1c2-c1ccc2c(c1)OCO2)OCO3
262 to 264 °C	N#Cc1ccc(NC(=O)c2ccc(S(=O)(=O)N3CCc4cc(Cl)ccc43)cc2)c(-c2n[nH]c(=O)o2)c1
252 to 254 °C	NC(=O)c1c(N2CCN(Cc3ccccc3)CC2)nn2c(-c3cccc(C(F)(F)F)c3)ccnc12
128 to 130 °C	CCN(CCNS(C)(=O)=O)c1ccc(N)c(C)c1
220 °C	N#Cc1cccc(NC(=O)c2ccn(-c3ccc(Cl)cc3)c2)c1N1CCC(N2CCOCC2)CC1
226 to 227 °C	C#CCOc1ccc2c(c1)Sc1cc([N+](=O)[O-])ccc1N2
207 to 208 °C	Cc1cc(=O)n2c3c(cc(C(OCc4ccccc4)(C(F)(F)F)C(F)(F)F)cc13)CC2
131 to 132 °C	O=C1Nc2ccccc2C1CCCCN1CCN(c2ccccn2)CC1 (stereo not given)
145 to 148 °C	COC(=O)c1ccc(-c2cccc(N)c2)cc1

melting point	SMILES
92 °C	Oc1ccc(-c2nc3cc(O)cc(-c4ccccc4)c3o2)cc1
168 to 170 °C	CCOc1ncnc2c(N3CCOCC3)nc(N3CCNCC3)nc12
248 to 249 °C	COn1c(C)nc2c(NCc3c(C)cccc3C)cc(C(=O)O)cc21
> 370 °C	Nc1ncnc2[nH]c(=O)sc12
161 to 163 °C	Cc1ccc(NC(=O)C(N)c2ccc3c(c2)C(C)(C)CCC3(C)C)cc1 (stereo not given)
107 to 108 °C	CC(Cc1cccc(N)c1)NC=O (stereo not given)
111 to 112 °C	CCCCN(CC)CC(=O)OC1CC2(C)C(C(C)=O)CCC2C2CCC3CC(O)CCC3(C)C12 (stereo not given)
65 to 69 °C	Cc1ccc(-c2c(NS(=O)(=O)c3ccc(C(C)(C)C)cc3)nc(NCCOC3CCCCO3)nc2OCCOc2ncc(Br)cn2)cc1 (stereo not given)
< 30 °C	CCCCCCCCOCCCCC(=O)O
164 °C	CC(O)(Cc1cnc(Cl)s1)c1ccc(Cl)cc1Cl (stereo not given)
138 to 139 °C	Cc1oc(-c2ccccc2)nc1COc1ccc(COc2cccnc2CC#N)cc1
195 to 196 °C	COc1ccc2c(c1)C(CC(=O)O)=C(C)C2=Cc1ccc(SC)cc1
90 to 91 °C	CCN(CC)C(=O)c1cc(C)nc([N+](=O)[O-])c1
228 to 232 °C	O=C(O)C(c1ccccc1)N1C(=O)c2cc(Cl)c(Cl)cc2C1=O (stereo not given)
144 to 145 °C	Oc1ccc(Cl)cc1CN1COC(c2ccc(C(F)(F)F)cc2)=N1
83 to 85 °C	O=C1OC(CCCCN2CCN(c3ccccc3)CC2)CN1c1ccccc1 (stereo not given)
163 to 164 °C	COc1ccc(C(=O)Nc2ccccc2)cc1NCc1ccc(C)c(C)c1
102 to 104 °C	CCN1CCN(CCCOc2cc3ncc(C#N)c(Nc4cc(OC)c(Cl)cc4Cl)c3cc2OC)CC1
159 to 160 °C	O=C(NCCO)c1cccc(-c2cccc3cc(Cc4cccc(F)c4)oc23)c1
203 °C	Nc1nc2ccc(NC(=O)C(=O)N3CCC(Cc4ccccc4)CC3)cc2s1
149 to 154 °C	CN1C(=O)NC(=O)C1=Cc1cc(OCCCC(=O)N(C)C2CCCCC2)ccc1[N+](=O)[O-]
139 to 140 °C	CC(C)(C)OC(=O)N[C@H]1CC[C@H](CCN2CCN(c3cc(C#N)cc(C(F)(F)F)c3)CC2)CC1
134 to 138 °C	O=C1N(CC2CCCO2)c2ccccc2C12COc1cc3c(cc12)OCCCO3 (stereo not given)
143 to 144 °C	CCS(=O)(=O)N(C)C1c2cc(F)c(Cl)cc2OC(C)(C)C1OC(C)=O (stereo not given)
246 to 248 °C	CC(C)(CO)c1ccc(C(=O)Nc2cn3cc(-c4ccoc4)ccc3n2)cc1

melting point	SMILES
50 to 54 °C	NC(=O)[C@@H]1CCCN1C(=O)/C=C/Sc1ccccc1
113 to 116 °C	COC(=O)Cc1cnc(-c2ccccc2)n1Cc1ccc([N+](=O)[O-])cc1
206 to 207 °C	CN1CCN(C)C(c2ccc(Nc3nc(Br)cn(C)c3=O)cc2)C1=O (stereo not given)
104 °C	COc1cc(C)c2c(c1)[C@@H]1c3ccccc3N[C@@H]1C2 (relative stereo)
209 to 210 °C	CCn1ncc(C(=O)c2ccc(S(C)(=O)=O)c(N3CCOC(O)C3)c2Cl)c1O (stereo not given)
188 °C	CC(C)S(=O)(=O)Nc1cccc(C=C2c3ccccc3CCc3ccccc32)c1
89 °C	CC(C)OC(=O)c1cc(NC(=S)OC(C)C)ccc1Cl
157 °C	COc1cc(-c2nc3ccccc3n2Cc2c(Cl)cccc2Cl)cc(OC)c1OC
189 to 191 °C	COc1ccc(Cl)cc1N1C(=O)CON(C)C1=S
177 to 179 °C	COC(=O)c1cccc(CNC(C)=O)c1C(=O)OC
191 to 192 °C	CS(=O)(=O)c1ccc(-c2cc(=O)n(C3CCCC3)nc2-c2ccc(F)cc2)cc1
148 to 150 °C	O=C(c1ccccc1)c1cnn2c(-c3cccc(C(F)(F)F)c3)ccnc12
129 to 132 °C	CCCCOc1c(-c2ccc(S(C)(=O)=O)cc2)cnn(-c2ccc(F)c(F)c2)c1=O
148 °C	O=S1(=O)c2cccc3cccc(c23)N1CCN1CCN(c2noc3ccccc23)CC1
138 to 140 °C	COc1cc(C(C)=O)ccc1OCCCN1CCN(c2nn(C(=O)c3ccccc3)c3cc(F)ccc23)CC1
270 °C	Cc1ccsc1-c1[nH]nc2c1C(=O)c1c(NC(N)=O)cccc1-2
183 to 184 °C	CC(=O)Nc1ccccc1Sc1ccc([N+](=O)[O-])cc1[N+](=O)[O-]
120 °C	CCOC(=O)C1=C(COCCNc2nc(C(=O)NC)cs2)NC(C)=C(C(=O)OC)C1c1ccccc1Cl (stereo not given)
94 to 97 °C	C[C@@H](Cn1ncc2ccc3c(c21)C[C@@H](OCC(N)=O)CO3)N=[N+]=[N-]
198 to 200 °C	CC(=O)Nc1ccc(-c2cccc(C3=NC(C)(C)Cc4ccc5c(c43)CC(C)(C)O5)c2)cc1
265 to 266 °C	O=C(O)c1cn(-c2cccnc2)cn1
76 to 78 °C	CCOC(=O)c1cc(CC)sc1Nc1ccc(Br)cc1[N+](=O)[O-]
40.5 to 41.5 °C	CCOC(=O)Cc1ccccc1I
142 to 144 °C	CC(C)c1cccc(C(C)C)c1N=c1cccc(-c2ccccc2)[nH]1
253 to 254 °C	COc1c(N2CCC(O)C2)c(F)cc2c(=O)c(C(=O)O)cn(C3CC3)c12 (stereo not given)

melting point	SMILES
94 °C	Cc1ccccc1-c1cccc2c1CCn1cc(-c3ccccc3)nc1C2OC1CCN(C)CC1 (stereo not given)
165 to 167 °C	CC(C)C(NS(=O)(=O)c1ccc(-c2ccc([N+](=O)[O-])cc2)cc1)C(=O)O (stereo not given)
137 to 140 °C	CCCCCCCCCCSc1ccc2c3c(cccc13)C(=O)N(CC(=O)O)C2=O
116 °C	NC(=O)C1COCCN1C1CC1 (stereo not given)
143 to 145 °C	COc1cc2nc(N3CCN(C(=O)c4ccco4)CC3)[nH]c2cc1OC
97 to 98 °C	OCCOc1cn(-c2ccc(F)cc2)c2cc(Cl)ccc12
108 to 115 °C	Nc1ncc(Cc2cccc(-c3ccccc3)c2)c(N)n1
77 to 78 °C	N#CCCCCCCCCn1nnc(-c2ccccc2)c1-c1ccccc1
95 to 97 °C	COc1cscc1NC=O
160 to 162 °C	CS(=O)(=O)N1CCC(Nc2nc(Nc3cccc(C(F)(F)F)c3)nc(OCc3ccccn3)n2)CC1
203 to 204 °C	CCn1c2c(c3ccccc31)C(=O)NCC2
189 to 191 °C	CCCc1ccnc(C(=O)c2[nH]c3cc(Cl)ccc3c2CC(=O)O)c1
148 °C	CCCc1ccc2nc(F)c(S(N)(=O)=O)n2n1
201 °C	Cc1c(NC(=O)c2ccc(OC[C@@H]3CCCO3)cc2)ccc2cc(CNCC(C)(C)C)n(C)c12
168 °C	CN(C)C(=S)Oc1ccc(C(=O)c2ccc([N+](=O)[O-])cc2)cc1
125 to 127 °C	CC(C)(c1ccccc1)C(n1ccnc1)S(=O)c1ccc(Cl)cc1 (stereo not given)
226 to 228 °C	COc1cn(-c2ccc(N3CCOCC3)cc2F)nc(-c2ccnn2-c2ccccc2)c1=O
187 to 196 °C	CCOc1ccc(N(C)C)cc1-c1ncc(C(=O)O)c(=O)[nH]1
160 to 161 °C	CC(C)CCCC(C)C1CCC2C3=CCC4C(C)(C)C(OC(=O)c5ccccc5)CCC4(C)C3CCC21C (stereo not given)
58 to 60 °C	Cc1cncc(C)c1-c1c(C)cc(C=Cc2ccc(C(C#N)C#N)cc2)cc1C
> 300 °C	Cn1nnc2c3nc(O)c(O)nc3ccc21
259 to 260 °C	O=C1N=C(c2ccccc2OCC2CC2)N=C2N=CN=C12
295 to 297 °C	CC(O)c1ccc2c3c1ccn3C(=O)CNC2 (stereo not given)

SMILES	melting point
N#CC1CN1C(=O)c1ccc(-c2ccccc2)cc1 (stereo not given)	104 to 106 °C
C=C1N(CCC)C(=O)OC12CCNCC2	106 to 108 °C
